These results are taken from ChEMBL document CHEMBL4028816, “Discovery of a potent inhibitor of MELK that inhibits expression of the anti-apoptotic protein Mcl-1 and TNBC cell growth” (Bioorg Med Chem, 2017).

Activity calls are given as the source filed them. The calls are words filed in the database; no cut-off is given here.

Test [1] addresses Maternal embryonic leucine zipper kinase (Homo sapiens, UniProt Q14680). The experiment in a line: Inhibition of His6-tagged MELK catalytic domain (1 to 340 residues) (unknown origin) expressed in Escherichia coli BL21 (DE3) cells using Bcl-GL as substrate measured after 30 mins in presence of [gamma32P]ATP by liquid scintillation counting method.
The target in test [2] is AMP-activated protein kinase, AMPK. Description: Inhibition of AMPK (unknown origin) using SAMS peptide as substrate measured after 30 mins in presence of [gamma32P]ATP by liquid scintillation counting method. The arrangement: species or system Homo sapiens.
The target in test [3] is Mitogen-activated protein kinase 1 (Homo sapiens, UniProt P28482). Description: Inhibition of ERK2 (unknown origin) using Ets-1 as substrate measured after 30 mins in presence of [gamma32P]ATP by liquid scintillation counting method.
In the next test the test system is HCC70. The experiment in a line: Antiproliferative activity against human HCC70 cells up to 20 uM after 72 hrs by CellTitre-Blue assay. The class given is functional, cell-based.
For the next test, the system named is BT-549. The experiment in a line: Antiproliferative activity against human BT549 cells up to 20 uM after 72 hrs by CellTitre-Blue assay. In kind it is functional, cell-based.
The subject of the next test is SUM-159-PT. Description: Antiproliferative activity against human SUM159 cells up to 20 uM after 72 hrs by CellTitre-Blue assay. The class given is functional, cell-based.
In the next test the test system is MCF-10A. The experiment in a line: Antiproliferative activity against human MCF10A cells at 10 uM after 72 hrs by CellTitre-Blue assay. In kind it is functional, cell-based.

Maternal embryonic leucine zipper kinase, sequence (Q14680 whole entry, the tested form may be a part): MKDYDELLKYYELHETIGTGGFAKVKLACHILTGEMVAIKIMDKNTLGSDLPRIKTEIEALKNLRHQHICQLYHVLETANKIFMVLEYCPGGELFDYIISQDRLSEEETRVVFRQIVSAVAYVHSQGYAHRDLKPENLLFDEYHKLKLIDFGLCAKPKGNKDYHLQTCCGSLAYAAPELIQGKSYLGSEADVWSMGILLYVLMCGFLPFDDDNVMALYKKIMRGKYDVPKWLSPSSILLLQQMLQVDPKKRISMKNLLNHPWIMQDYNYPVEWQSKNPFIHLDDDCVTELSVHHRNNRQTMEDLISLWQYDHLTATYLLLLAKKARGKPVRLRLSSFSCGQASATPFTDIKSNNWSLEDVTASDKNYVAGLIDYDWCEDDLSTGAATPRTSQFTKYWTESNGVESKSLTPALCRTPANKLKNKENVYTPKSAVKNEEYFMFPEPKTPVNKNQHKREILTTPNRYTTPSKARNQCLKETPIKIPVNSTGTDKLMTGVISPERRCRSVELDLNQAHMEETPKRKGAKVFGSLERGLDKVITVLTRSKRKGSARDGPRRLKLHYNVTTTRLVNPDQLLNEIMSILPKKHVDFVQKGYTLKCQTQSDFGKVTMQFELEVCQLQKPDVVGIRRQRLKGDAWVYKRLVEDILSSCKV
Mitogen-activated protein kinase 1, sequence (P28482 whole entry): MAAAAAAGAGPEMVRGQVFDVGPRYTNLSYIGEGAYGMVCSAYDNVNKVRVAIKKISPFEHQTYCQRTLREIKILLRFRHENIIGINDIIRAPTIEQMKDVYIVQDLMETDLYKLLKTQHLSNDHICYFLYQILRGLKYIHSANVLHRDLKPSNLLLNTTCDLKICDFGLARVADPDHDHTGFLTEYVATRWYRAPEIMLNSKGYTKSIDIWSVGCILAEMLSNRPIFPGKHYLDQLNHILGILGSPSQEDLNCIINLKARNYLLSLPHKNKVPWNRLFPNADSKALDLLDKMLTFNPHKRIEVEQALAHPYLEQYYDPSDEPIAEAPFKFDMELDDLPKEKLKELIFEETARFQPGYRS

As usually defined, the IC50 is the midpoint of a concentration-inhibition curve. As usually defined, the Ki is the equilibrium dissociation constant of an inhibitor or competing ligand from its target. Take `CN1CCN(CC(=O)N(C)c2ccc(N/C(=C3\C(=O)Nc4cc(C(=O)NCCCN)ccc43)c3ccccc3)cc2)CC1`: in test [1], the IC50 is more than 5 µM and the inhibition constant (Ki) is more than 0.65 µM.
On to `CN1CCN(CC(=O)N(C)c2ccc(N/C(=C3\C(=O)Nc4ccc(C(=O)O)cc43)c3ccccc3)cc2)CC1`, for which the results for the Ki in test [2] and in test [3] were 0.0049 µM and 19 µM, respectively.
Regarding `CN1CCN(CC(=O)N(C)c2ccc(N/C(=C3\C(=O)Nc4ccccc43)c3ccccc3)cc2)CC1`, the Ki in test [2] is 0.0042 µM.
`COC(=O)c1ccc2c(c1)/C(=C(/Nc1ccc(N(C)C(=O)CN3CCN(C)CC3)cc1)c1ccccc1)C(=O)N2`: the values for the Ki in test [2] and in test [3] were 0.0092 µM and 3 µM, respectively. Moreover, the outcome in the test on HCC70, in the test on BT-549 and with SUM-159-PT was Active. In the test on MCF-10A, the result was inactive.
